Source: patent US11753445B2, “Therapeutic peptides” (COHBAR, INC., priority 2016, dated 2023)
Peptide text beside a SMILES is read from it.

Tests used:
3T3-L1 Adipocytes = experiment: Free fatty acid levels in cultured mouse 3T3-L1 adipocytes, isoproterenol stimulated (Example 2); format: cell-based; conditions: test peptides 25 μM; isoproterenol 1 nM
Protocol: Mouse 3T3-L1 cells were seeded at a density between 1,000-20,000 cells per well on 96-well, 48-well, or 24-well plates in Pre-adipocyte Medium (Zen-Bio, Durham, N.C.) and grown to confluence at 37° C. in a humidified atmosphere of 5% CO2/95% air. Two days after confluence, cells were placed in Adipocyte Differentiation Medium (Zen-Bio, Durham, N.C.) and cultured for three additional days at 37° C. in a humidified atmosphere of 5% CO2/95% air. The culture media was then replaced with Adipocyte Maintenance Medium (Zen-Bio) and the cells were maintained for an additional 9-14 days at 37° C. in a humidified atmosphere of 5% CO2/95% air with partial medium replacement every other day. Following 12-17 days of differentiation, test peptides were added at a final concentration of 25 μM and incubated for 18-20 hours in Adipocyte Maintenance Medium at 37° C. in a humidified atmosphere of 5% CO2/95%. After 18-20 hours, the media was exchanged with fresh Adipocyte Maintenance Medium containing test peptides and incubated for 1 h at 37° C. in a humidified atmosphere of 5% CO2/95%. After 1 h media was exchanged with Assay Buffer (Zen-Bio) containing isoproterenol (1 nM) (added to all samples except untreated controls) and the test peptides. Cells were incubated for a further 3 hours at 37° C. in a humidified atmosphere of 5% CO2/95%. Free fatty acid concentrations in the media were determined using a Free Fatty Acid Assay Kit (Zen-Bio) according to the manufacturer's instructions using a plate reader (540 nm).
Absorbance values were corrected for untreated background and expressed relative to isoproterenol treated cells. Treatment with isoproterenol (1 nM) alone was used as the free fatty acid level stimulatory control. The relative standard deviation of the isoproterenol control was <10%. […] Free fatty acid levels for insulin (100 nM) treatment were <5% of the isoproterenol control value.

[1] = Stability in mouse plasma, peptides 10 uM (Example 15); format: in vitro ADME; conditions: mouse plasma 37° C., peptide 10 uM; for remaining at 0.25 h, 10 uM / remaining at 0.5 h, 10 uM / remaining at 1 h, 10 uM / remaining at 2 h, 10 uM / remaining at 3 h, 10 uM: pooled mouse plasma; for remaining at 0.25 h, 10 uM: 15 min, read-out: % Remaining at Each Time Point: 15 min; for remaining at 0.5 h, 10 uM: 30 min, read-out: % Remaining at Each Time Point: 30 min; for remaining at 1 h, 10 uM: 60 min, read-out: % Remaining at Each Time Point: 60 min; for remaining at 2 h, 10 uM: 120 min, read-out: % Remaining at Each Time Point: 120 min; for remaining at 3 h, 10 uM: 180 min, read-out: % Remaining at Each Time Point: 180 min
Protocol: Peptides (10 uM) were incubated in pooled mouse plasma at 37° C. and samples were removed and immediately analyzed for the concentration of intact peptide by LC/MS/MS over the course of 3 hours. The percent of peptide remaining in plasma at each time point was calculated relative to the initial peak area (Table 13).

% Remaining at Each Time Point: 0 min [1] [%] | remaining at 0.25 h, 10 uM [1] [%] | remaining at 0.5 h, 10 uM [1] [%] | remaining at 1 h, 10 uM [1] [%] | remaining at 2 h, 10 uM [1] [%] | remaining at 3 h, 10 uM [1] [%] | Molecule | Free Fatty Acid Levels in 3T3-L1 Adipocytes Expressed as a Percent of Isoproterenol Control: Percent of Control Value (3T3-L1 Adipocytes) [%]
– | – | – | – | – | – | CC[C@H](C)[C@H](NC(=O)[C@H](Cc1ccc(O)cc1)NC(=O)[C@@H](C)NC(=O)[C@H](CCSC)NC(=O)[C@H](CCC(=O)O)NC(=O)[C@H](CCC(N)=O)NC(=O)[C@H](Cc1c[nH]c2ccccc12)NC(=O)[C@H](CCCNC(=N)N)NC(=O)[C@H](CCSC)NC(C)=O)C(=O)N[C@@H](Cc1ccccc1)C(=O)N[C@@H](Cc1ccc(O)cc1)C(=O)N1CCC[C@H]1C(=O)N[C@@H](CCCNC(=N)N)C(=O)N[C@@H](CCCCN)C(=O)N[C@@H](CC(C)C)C(=O)N[C@@H](CCCNC(=N)N)C(N)=O [compound 88] (HELM PEPTIDE1{[ac].M.R.W.Q.E.M.[dA].Y.I.F.Y.P.R.K.L.R.[am]}$$$$V2.0) | 75.1
– | – | – | – | – | – | CC[C@H](C)[C@H](NC(=O)[C@H](Cc1ccc(O)cc1)NC(=O)CNC(=O)[C@H](CCSC)NC(=O)[C@H](CCC(=O)O)NC(=O)[C@H](CCC(N)=O)NC(=O)[C@H](Cc1c[nH]c2ccccc12)NC(=O)C(C)(C)NC(=O)[C@@H](N)CCSC)C(=O)N[C@@H](Cc1ccccc1)C(=O)N[C@@H](Cc1ccc(O)cc1)C(=O)N1CCC[C@H]1C(=O)N[C@@H](CCCNC(=N)N)C(=O)N[C@@H](CCCCN)C(=O)N[C@@H](CC(C)C)C(=O)N[C@@H](CCCNC(=N)N)C(=O)O [compound 118] (HELM PEPTIDE1{M.[Aib].W.Q.E.M.G.Y.I.F.Y.P.R.K.L.R}$$$$V2.0) | 84.6
– | – | – | – | – | – | CC[C@H](C)[C@H](NC(=O)[C@H](Cc1ccc(O)cc1)NC(=O)CNC(=O)[C@H](CCSC)NC(=O)[C@H](CCC(=O)O)NC(=O)[C@H](CCC(N)=O)NC(=O)[C@H](Cc1c[nH]c2ccccc12)NC(=O)C(C)(C)NC(=O)[C@@H](N)CCSC)C(=O)N[C@@H](Cc1ccccc1)C(=O)N[C@@H](Cc1ccc(O)cc1)C(=O)N1CCC[C@H]1C(=O)N[C@@H](CCCNC(=N)N)C(=O)N[C@@H](CCCCN)C(=O)N[C@@H](CC(C)C)C(=O)N[C@@H](CCCNC(=N)N)C(N)=O [compound 119] (HELM PEPTIDE1{M.[Aib].W.Q.E.M.G.Y.I.F.Y.P.R.K.L.R.[am]}$$$$V2.0) | 89.2
– | – | – | – | – | – | CC[C@H](C)[C@H](NC(=O)[C@H](Cc1ccc(O)cc1)NC(=O)CNC(=O)[C@H](CCSC)NC(=O)[C@H](CCC(=O)O)NC(=O)[C@H](CCC(N)=O)NC(=O)[C@H](Cc1c[nH]c2ccccc12)NC(=O)C(C)(C)NC(=O)[C@H](CCSC)NC(C)=O)C(=O)N[C@@H](Cc1ccccc1)C(=O)N[C@@H](Cc1ccc(O)cc1)C(=O)N1CCC[C@H]1C(=O)N[C@@H](CCCNC(=N)N)C(=O)N[C@@H](CCCCN)C(=O)N[C@@H](CC(C)C)C(=O)N[C@@H](CCCNC(=N)N)C(=O)O [compound 120] (HELM PEPTIDE1{[ac].M.[Aib].W.Q.E.M.G.Y.I.F.Y.P.R.K.L.R}$$$$V2.0) | 86.0
– | – | – | – | – | – | CC[C@H](C)[C@H](NC(=O)[C@H](Cc1ccc(O)cc1)NC(=O)CNC(=O)[C@H](CCSC)NC(=O)[C@H](CCC(=O)O)NC(=O)[C@H](CCC(N)=O)NC(=O)[C@H](Cc1c[nH]c2ccccc12)NC(=O)C(C)(C)NC(=O)[C@H](CCSC)NC(C)=O)C(=O)N[C@@H](Cc1ccccc1)C(=O)N[C@@H](Cc1ccc(O)cc1)C(=O)N1CCC[C@H]1C(=O)N[C@@H](CCCNC(=N)N)C(=O)N[C@@H](CCCCN)C(=O)N[C@@H](CC(C)C)C(=O)N[C@@H](CCCNC(=N)N)C(N)=O [compound 121] (HELM PEPTIDE1{[ac].M.[Aib].W.Q.E.M.G.Y.I.F.Y.P.R.K.L.R.[am]}$$$$V2.0) | 89.8
– | – | – | – | – | – | CC[C@H](C)[C@H](NC(=O)[C@H](Cc1ccc(O)cc1)NC(=O)CNC(=O)[C@H](CCSC)NC(=O)[C@H](CCC(=O)O)NC(=O)[C@H](CCC(N)=O)NC(=O)[C@H](Cc1c[nH]c2ccccc12)NC(=O)[C@H](CCCNC(=N)N)NC(=O)[C@@H](C)N)C(=O)N[C@@H](Cc1ccccc1)C(=O)N[C@@H](Cc1ccc(O)cc1)C(=O)N1CCC[C@H]1C(=O)N[C@@H](CCCNC(=N)N)C(=O)N[C@@H](CCCCN)C(=O)N[C@@H](CC(C)C)C(=O)N[C@@H](CCCNC(=N)N)C(=O)O [compound 136] (HELM PEPTIDE1{[dA].R.W.Q.E.M.G.Y.I.F.Y.P.R.K.L.R}$$$$V2.0) | 44.2
– | – | – | – | – | – | CC[C@H](C)[C@H](NC(=O)[C@H](Cc1ccc(O)cc1)NC(=O)CNC(=O)[C@H](CCSC)NC(=O)[C@H](CCC(=O)O)NC(=O)[C@H](CCC(N)=O)NC(=O)[C@H](Cc1c[nH]c2ccccc12)NC(=O)[C@@H](C)NC(=O)[C@@H](N)CCSC)C(=O)N[C@@H](Cc1ccccc1)C(=O)N[C@@H](Cc1ccc(O)cc1)C(=O)N1CCC[C@H]1C(=O)N[C@@H](CCCNC(=N)N)C(=O)N[C@@H](CCCCN)C(=O)N[C@@H](CC(C)C)C(=O)N[C@@H](CCCNC(=N)N)C(=O)O [compound 137] (HELM PEPTIDE1{M.[dA].W.Q.E.M.G.Y.I.F.Y.P.R.K.L.R}$$$$V2.0) | 91.4
– | – | – | – | – | – | CC[C@H](C)[C@H](NC(=O)[C@H](Cc1ccc(O)cc1)NC(=O)CNC(=O)[C@H](CCSC)NC(=O)[C@H](CCC(=O)O)NC(=O)[C@H](CCC(N)=O)NC(=O)[C@@H](C)NC(=O)[C@H](CCCNC(=N)N)NC(=O)[C@@H](N)CCSC)C(=O)N[C@@H](Cc1ccccc1)C(=O)N[C@@H](Cc1ccc(O)cc1)C(=O)N1CCC[C@H]1C(=O)N[C@@H](CCCNC(=N)N)C(=O)N[C@@H](CCCCN)C(=O)N[C@@H](CC(C)C)C(=O)N[C@@H](CCCNC(=N)N)C(=O)O [compound 138] (HELM PEPTIDE1{M.R.[dA].Q.E.M.G.Y.I.F.Y.P.R.K.L.R}$$$$V2.0) | 71.5
– | – | – | – | – | – | CC[C@H](C)[C@H](NC(=O)[C@H](Cc1ccc(O)cc1)NC(=O)CNC(=O)[C@H](CCSC)NC(=O)[C@H](CCC(=O)O)NC(=O)[C@@H](C)NC(=O)[C@H](Cc1c[nH]c2ccccc12)NC(=O)[C@H](CCCNC(=N)N)NC(=O)[C@@H](N)CCSC)C(=O)N[C@@H](Cc1ccccc1)C(=O)N[C@@H](Cc1ccc(O)cc1)C(=O)N1CCC[C@H]1C(=O)N[C@@H](CCCNC(=N)N)C(=O)N[C@@H](CCCCN)C(=O)N[C@@H](CC(C)C)C(=O)N[C@@H](CCCNC(=N)N)C(=O)O [compound 139] (HELM PEPTIDE1{M.R.W.[dA].E.M.G.Y.I.F.Y.P.R.K.L.R}$$$$V2.0) | 58.1
100 | 85 | 73.4 | 69.3 | 68.1 | 73.7 | H-RWQEENYIAEPR-OH [compound 261] | –
100 | 82.2 | 65.2 | 42.2 | 32.8 | 34.8 | H-RWQEENYIFEPR-OH [compound 259] | –
100 | 63.2 | 53.5 | 36.3 | 30.3 | 21.7 | H-RWQEENYIFYPR-OH [compound 258] | –
100 | 80.7 | 68.6 | 46.9 | 40.5 | 30.8 | H-RWQEEQYIFYPR-OH [compound 263] | –
100 | 78.3 | 62.6 | 40.9 | 28.7 | 19.6 | H-RWQEMQYIAYPR-OH [compound 255] | –
100 | 52.4 | 33.3 | 30.3 | 24 | 18.1 | H-RWQEMQYIFEPR-OH [compound 254] | –
